Columns and labels:
[1] = target: T1, Mcl-1 (Homo sapiens, UniProt Q07820); details: versus Bcl-2, Bcl-xL, Bcl-w; cited from earlier work
Target sequence in this assay (Q07820 whole entry, species assumed): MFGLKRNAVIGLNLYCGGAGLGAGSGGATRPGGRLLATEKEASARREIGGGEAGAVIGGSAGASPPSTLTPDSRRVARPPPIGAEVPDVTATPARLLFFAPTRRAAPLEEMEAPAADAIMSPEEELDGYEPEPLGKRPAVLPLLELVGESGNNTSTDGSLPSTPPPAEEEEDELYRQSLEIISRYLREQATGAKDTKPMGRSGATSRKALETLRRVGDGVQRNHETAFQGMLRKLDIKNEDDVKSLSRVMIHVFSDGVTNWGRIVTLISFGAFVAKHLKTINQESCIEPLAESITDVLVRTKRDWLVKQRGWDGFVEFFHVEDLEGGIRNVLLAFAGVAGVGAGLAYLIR

[2] = target: T2, A1 (Homo sapiens, UniProt Q16548); details: versus Bcl-2, Bcl-xL, Bcl-w; cited from earlier work
T2 sequence (Q16548 1-175): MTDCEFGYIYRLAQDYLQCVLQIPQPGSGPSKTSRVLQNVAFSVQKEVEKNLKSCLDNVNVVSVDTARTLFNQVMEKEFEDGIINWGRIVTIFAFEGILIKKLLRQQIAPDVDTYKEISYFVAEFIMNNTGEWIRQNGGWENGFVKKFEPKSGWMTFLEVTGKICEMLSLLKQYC

[3] = target: T1, Mcl-1; experiment: Fluorescence polarization (FP)-based binding assay, Mcl-1; details: FP saturation, 2 nM probe, increasing protein concentrations; read-out: Kd of fluorescent probe to Mcl-1
Target sequence in this assay (Q07820 whole entry): as the sequence (Q07820 whole entry, species assumed) above

Compound	specificity over Mcl-1 [1]	specificity over A1 [2]	Kd [3] [nM]
CC1(C)CCC(c2ccc(Cl)cc2)=C(CN2CCN(c3ccc(C(=O)NS(=O)(=O)c4ccc(N[C@H](CCN5CCOCC5)CSc5ccccc5)c(S(=O)(=O)C(F)(F)F)c4)cc3)CC2)C1 [ABT-263]	high specificity	high specificity	–
CN(C)CC[C@H](CSc1ccccc1)Nc1ccc(S(=O)(=O)NC(=O)c2ccc(N3CCN(Cc4ccccc4-c4ccc(Cl)cc4)CC3)cc2)cc1[N+](=O)[O-] [ABT-737]	high specificity	high specificity	–
Flu-BID: homemade fluorescein labeled BID (79-99) peptide, fluorescent probe for Mcl-1 FP assay	–	–	6.8 ± 1.5

Reference: patent US9096625B2, “BCL-2/BCL-XL inhibitors and therapeutic methods using the same” (THE REGENTS OF THE UNIVERSITY OF MICHIGAN, priority 2013, dated 2015)
